# In patent US20070134733A1, “Raman signature probes and their use in the detection and imaging of molecular processes and structures” (Parallax Biosystems, Inc., priority 2003, published 2007):
# Target: T1, NADH-dependent enoyl acyl carrier reductase (FabI) (Escherichia coli, UniProt P0AEK4)
# T1 construct: made in house; host or cells: recombinant bacteria (strain from Dr. Charles Rock, St. Jude Children's Research Hospital)
# Assay: FabI enzyme inhibition assay (NADH consumption, absorbance at 340 nm)
# Format: biochemical, bacteria
# Conditions: purified HIS-tagged FabI enzyme, NADH and substrate (e.g. Malonyl CoA or Crotonyl CoA)
# Description: Prior to using the potential RSP compounds as probes to detect bacteria the modified compounds will be tested for their ability to inhibit FabI. As shown with numerous studies that have explored the structure activity relationship of other FabI inhibitor analogs, there is a good correlation between the ability of a compound to inhibit the enzyme and its affinity towards the enzyme (Seefeld et al., Bioorg. Med. Chem. Lett. 11 (2001) 2061-2065). Recombinant bacteria expressing a HIS-tagged FabI protein are available from Dr. Charles Rock at St. Jude Children's Research Hospital in Memphis Tenn. The overexpressed protein is readily purified as a bioactive enzyme using conventional Ni^2+ chromatographic methods (Heath & Rock, J. Biol. Chem. 270 (1995) 26538-26542). Enzyme assays will be performed as described by Bergler et al. (J. Biol. Chem. 269 (1994) 5493-5496). Briefly, purified HIS-tagged FabI enzyme is added to a reaction containing NADH and an appropriate substrate (e.g. Malonyl CoA or Crotonyl CoA). The reductase activity is assayed by monitoring the decrease in absorbance at 340 nm due to the consumption of NADH. The inhibitory activity of all RSPs will be compared with Compound 1.
# T1 sequence (P0AEK4 whole entry): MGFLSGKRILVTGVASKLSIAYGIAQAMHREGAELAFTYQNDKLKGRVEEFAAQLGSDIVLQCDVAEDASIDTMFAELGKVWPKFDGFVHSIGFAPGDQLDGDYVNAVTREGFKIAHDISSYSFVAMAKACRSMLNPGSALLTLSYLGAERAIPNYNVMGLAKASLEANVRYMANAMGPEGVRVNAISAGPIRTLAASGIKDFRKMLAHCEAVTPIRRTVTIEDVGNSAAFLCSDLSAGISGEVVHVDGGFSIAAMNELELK
row,SMILES,EC50
1,N#Cc1ccc(Cn2c3c(c4ccccc42)CCN(C(=O)c2ccc(Cl)cc2)C3)cc1 [Compound 1A],2520 nM
2,[2H]C([2H])([2H])C([2H])([2H])n1c2c(c3ccccc31)CCN(C(=O)c1ccc(Cl)cc1)C2 [Compound 1E],7830 nM
3,[2H]c1c([2H])c([2H])c(C(=O)N2CCc3c(n(Cc4ccc(F)cc4)c4ccccc34)C2)c([2H])c1[2H] [Compound 1B],1500 nM
4,CC#CCn1c2c(c3ccccc31)CCN(C(=O)c1ccc(Cl)cc1)C2 [Compound 1D],6010 nM
5,"Nc1ccc(Cn2c3c(c4ccccc42)CCN(C(=O)c2ccc(O)cc2)C3)cc1 [Compound 1, reference compound]",670 nM
6,N#Cc1ccc(Cn2c3c(c4ccccc42)CCN(C(=O)c2ccc(Br)cc2)C3)cc1 [Compound 1C],2530 nM
